Measurements from patent US20050107289A1, “Anti-microbial peptides and compositions” (priority 2001, published 2005).
Converted amounts (≈) assume the structure as drawn. Structures can show the parent of a compound that is named as a salt. Where two headings read alike, the source gives them in different places. Non-standard residues stand in square brackets, D forms with d. Residues, ends and D or L forms follow the SMILES beside them.

How the values were obtained:
[1] = test system: Bacillus cereus ATCC 11778; type: cell-based; settings: Table 10
Procedure, shortened: (§1)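 Peptide activity was measured by NCCLS M7-A4 broth dilution, mostly as microdilution with some macrodilution. Serial 2-fold dilutions, approximately 400-2 μg/ml stock range, were made in 5% DMSO/9% aq. sucrose. Overnight cultures were diluted 4000-fold to about 2.5×10^5 cfu/ml inoculum.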

[2] = test system: vancomycin-resistant Enterococus faecalis (VRE)(ATCC 51575); type: cell-based, Enterococcus faecalis; parameters: key to VRE (in vitro activity): peptide concentration in μg/ml (broth dilution assay); settings: for VRE (in vitro activity): Table 9
Procedure, shortened: as §1

[3] = test system: S. aureus (MRSA) ATCC 33591; type: cell-based, Staphylococcus aureus; settings: for MRSA (in vitro activity): Table 9
Procedure, shortened: as §1

[4] = trypsin, α-chymotrypsin, subtilisin, blood plasma; RP-HPLC over 24 h
Procedure: Cyclic peptides having SEQ ID NO:13, 18, 26, and 29 were assayed for proteolytic susceptibility.

murine red blood cells = experiment: Red blood cell hemolysis; type: cell-based, mouse; parameters: RBC Hemolysis (HD50): unit not given here
Procedure, shortened: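 Hemolysis read as A560 of supernatant, scaled between saline (0%) and 1% Triton X-100 (100%) controls; peptides were serially diluted onto 5% murine red cells in saline plus 10% FBS and incubated 30 min at 37° C.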

E. coli JM109(DE3) = type: cell-based, Escherichia coli
Procedure, shortened: as §1

[5] = Single channel conductance in planar lipid membranes
Procedure: The ion transport properties of tetrapeptides cyclo[(β-Trp)4] and cyclo[(β-Trp-β-Leu)2], synthesized via established protocols, were studied in liposome-based assays and by single channel conductance measurements in planar lipid membranes. The observed conductance in 500 mM KCl with peptide concentrations of about […] in the subphase is 56 pS, corresponding to the rates of channel mediated K^+ transport of 1.9×10^7 ions s^−1 for both tetrapeptides.

H. influenzae ATCC 49247 = experiment: microbe, parasite or virus in culture; type: cell-based, Hemophilus influenzae
Procedure: (§2) The antimicrobial activity of the peptides was determined using a broth dilution assay essentially as descried in the guidelines of the National Committee for […] (NCCLS) [National Committee for Clinical Laboratory Standards. Methods for dilution antimicrobial susceptibility tests for bacteria that grow aerobically. Fourth edition. Approved Standard (1997). Document M7-A4. […] The microdilution method has the advantages of requiring less amount of peptide for each assay and the possibility of multiple simultaneous inoculations and was used in most studies. Several of the strains of bacteria tested are further described in Table 3.
(§3) Preparation of peptide solutions. Stock peptide solutions were prepared in 5% DMSO in aq. sucrose (9%). Determination of peptide concentrations was done by quantitative HPLC analysis using known concentrations of internal standards and/or by measuring UV absorption of tryptophane-containing peptide solutions in H2O (λ=280 εTrp: 5690). Serial 2-fold dilutions were made in the above DMSO/aq. sucrose (9%) mixture with concentrations ranging approximately 400-2 μg/ml and aliquots were dispensed in test tubes (100 μl) for the macrodilution test or in microtiter plates (20 μl) for the microdilution assays.
(§4) Inoculum preparation. Overnight cultures of different microorganisms grown in suitable media were diluted 4000 times to an approximate inoculum size of 2.5×10^5 cfu/ml.
(§5) Macrodilution method. Macrodilution methods were performed using procedures similar to those described in the National Committee for Clinical Laboratory Standards. Methods for dilution antimicrobial susceptibility tests for bacteria that grow aerobically. Fourth edition. Approved Standard (1997). Document M7-A4. (NCCLS,Villanova, Pa., 1997). Two ml aliquots of the above inoculum were dispensed to test tubes containing different peptide solutions.
(§6) Microdilution method. Microdilution methods were performed using procedures similar to those described in the National Committee for Clinical Laboratory Standards. Methods for dilution antimicrobial susceptibility tests for bacteria that grow aerobically. Fourth edition. Approved Standard (1997). Document M7-A4.

E. faecium SP180 = experiment: microbe, parasite or virus in culture; type: cell-based, Enterococcus faecium; settings: SP180
Procedure: as §2, §3, §4, §5, §6

[6] = test system: E. coli (EL744) K12 (tolC::kan); experiment: microbe, parasite or virus in culture; type: cell-based, Escherichia coli
Procedure: as §2, §3, §4, §5, §6

E. coli (K12) = experiment: microbe, parasite or virus in culture; type: cell-based, Escherichia coli
Procedure: as §2, §3, §4, §5, §6

S. aureus ATCC 33592 = experiment: microbe, parasite or virus in culture; type: cell-based, Staphylococcus aureus
Procedure: as §2, §3, §4, §5, §6

E. faecalis ATCC 51299 = experiment: microbe, parasite or virus in culture; type: cell-based, Enterococcus faecalis
Procedure: as §2, §3, §4, §5, §6

CC(C)C[C@H]1NC(=O)[C@H](Cc2c[nH]c3ccccc23)NC(=O)[C@@H](CCCCN)NC(=O)[C@H](Cc2c[nH]cn2)NC(=O)[C@@H](CO)NC(=O)[C@H](Cc2c[nH]c3ccccc23)NC(=O)[C@@H](CC(C)C)NC(=O)[C@H](Cc2c[nH]c3ccccc23)NC1=O [SEQ ID NO:13] (cyclo([dS]H[dK]W[dL]W[dL]W))
B. cerius MIC [1]: 12 µg/mL | VRE (in vitro activity) ([2]; media a: AM-3): 40 | VRE MIC ([2]; Table 10, ATCC 51575): 40 µg/mL | S. aureus (MRSA) MIC ([3]; Table 6, ATCC 33591): 10 µg/mL | MRSA (in vitro activity) ([3]; media a: anti-microbial media-3 (AM-3)): 10 | MRSA MIC ([3]; Table 10, ATCC 33591): 10 µg/mL | proteolytic stability [4]: stable | RBC Hemolysis (HD50) (murine red blood cells; Table 9): 35 | E. coli MIC (E. coli JM109(DE3); Table 6, JM109(DE3)): 100 µg/mL

CC(C)C[C@H]1NC(=O)[C@H](CCCNC(=N)N)NC(=O)[C@@H](CCCNC(=N)N)NC(=O)[C@H](Cc2c[nH]c3ccccc23)NC(=O)[C@@H](CC(C)C)NC(=O)[C@H](Cc2c[nH]c3ccccc23)NC1=O [SEQ ID NO:29, cyclo-(D-Arg-Arg-D-Leu-Trp-D-Leu-Trp)] (cyclo(R[dL]W[dL]W[dR]))
S. aureus (MRSA) MIC ([3]; ATCC 33591): 35 µg/mL | proteolytic stability [4]: stable | Hemolysis HD50 (murine red blood cells; red cells of murine): 90 µg/mL | E. coli MIC (E. coli JM109(DE3); JM109): 5 µg/mL

cyclo[(β-Trp-β-Leu)2]
rate of channel mediated K+ transport ([5]; 500 mM KCl): 1.9×10^7 ions s^−1 | observed conductance ([5]; 500 mM KCl, peptide about 30 mM in the subphase): 56 pS | transport speed relative to gramicidin A ([5]; similar conditions): more than twice

CCn1cc(C(=O)O)c(=O)c2cc(F)c(N3CCNCC3)cc21 [Norfloxacin, reference compound]
MIC (H. influenzae ATCC 49247; Haemophilus influenzae, ATCC49247, HTM, read-out: H. influenzae ATCC 49247 MIC): 0.06 µg/mL (≈ 0.188 µM) | MIC (E. faecium SP180; Enterococcus faecium, BHI broth, read-out: E. faecium SP180 MIC): 32 µg/mL (≈ 100 µM) | VRE (in vitro activity) ([2]; media c: Brain Heart Infusion (BHI)): <2.8 | MRSA (in vitro activity) ([3]; media b: cation adjusted Meuller Hinton broth (MHBII)): <2.8 | MIC ([6]; Escherichia coli, read-out: E. coli (EL744) K12 (tolC::kan) MIC): 0.016 µg/mL (≈ 0.0501 µM) | MIC (E. coli (K12); Escherichia coli, MHII broth, read-out: E. coli (K12) MIC): 0.06 µg/mL (≈ 0.188 µM) | RBC Hemolysis (HD50) (murine red blood cells; mouse, 30 min): >360 | MIC (S. aureus ATCC 33592; Staphylococcus aureus, ATCC33592, MHII broth, read-out: S. aureus ATCC 33592 MIC): 0.5 µg/mL (≈ 1.57 µM) | MIC (E. faecalis ATCC 51299; Enterococcus faecalis, ATCC51299, BHI broth, read-out: E. faecalis ATCC 51299 MIC): 2 µg/mL (≈ 6.26 µM)

CC(C)C[C@H]1NC(=O)[C@H](CCCNC(=N)N)NC(=O)[C@@H](CCCNC(=N)N)NC(=O)[C@H](Cc2c[nH]c3ccccc23)NC(=O)[C@@H](CC(C)C)NC(=O)[C@H](Cc2c[nH]c3ccccc23)NC1=O [[RRLWLW]-HCl, cyclo-(D-Arg-Arg-D-Leu-Trp-D-Leu-Trp)] (cyclo(R[dL]W[dL]W[dR]))
H. influenzae ATCC 49247 MIC (H. influenzae ATCC 49247; ATCC 49247): 8 to 16 µg/mL | E. faecium SP180 MIC (E. faecium SP180): 8 to 16 µg/mL | E. coli (EL744) K12 (tolC::kan) MIC ([6]; MHII broth): 8 µg/mL | E. coli (K12) MIC (E. coli (K12); K12): 16 µg/mL | S. aureus ATCC 33592 MIC (S. aureus ATCC 33592; ATCC 33592): 32 µg/mL | E. faecalis ATCC 51299 MIC (E. faecalis ATCC 51299; ATCC 51299): 32 to 64 µg/mL
